Values of other authors, collected in patent US8389024B2, “Abscisic acid against cancer” (priority 2005, dated 2013).
Read-outs that look alike come from different tables or passages of the source.

Legend:
[1] = the mentioned concentration (50 mg/ml), Sigma-Aldrich
[2] = tested on: leaf discs of V. Faba
[3] = tested on: head and neck squamous cell carcinoma; conditions: in vivo
[4] = tested on: lymphoblastic leukemia, prostate, breast and melanoma human cancer cells
[5] = tested on: human and murine pancreatic beta cells
[6] = tested on: Lemna gibba G1
[7] = tested on: human granulocytes
[8] = tested on: TCA8113 (human oral carcinoma); conditions: TCA8113 cells in vitro
[9] = tested on: nuclear protein Ki67
[10] = tested on: DU-145 (prostate cancer); conditions: DU-145 tumor cells
[11] = tested on: four human cancer cell lines (HELA, DU145, HCT116 AND K562)
[12] = tested on: TNFALFA; conditions: human monocytes, murine microglia and murine macrophages
[13] = tested on: a variety of tumor cells
[14] = tested on: C 1498 transplanted tumor with myeloid leukemia; conditions: for rate of survival at the end of 14 days: groups of 10 mice, treated 7 days; for survival: oral
[15] = tested on: HL-60 (promyelocytic leukemia); conditions: HL-60 tumor cells
[16] = tested on: humans with cancer; conditions: 62 random cases, inconclusive cases not considered; digestive treatment with ABA plus vaccine against P. crytocides
[17] = tested on: stomatal opening; conditions: 10 mcM ABA extracellular application

CC1=CC(=O)CC(C)(C)C1(O)/C=C/C(C)=C\C(=O)O (racemic) [(+/−)-Abscisic acid]
appearance of the solution in ethanol [1]: clear to slightly hazy

CC1=CC(=O)CC(C)(C)C1(O)/C=C/C(C)=C\C(=O)O (racemic) [racemic ABA (R)]
half-lives (catabolism) [2]: 30 to 32 h

CC1=C(/C=C/C(C)=C/C=C/C(C)=C\C(=O)O)C(C)(C)CCC1 [ISOTRETINOIN]
effectiveness in chemoprevention trial [3]: not effective

CC/C=C\C[C@H]1C(=O)CC[C@@H]1CC(=O)O [JA, jasmonic acid]
proliferation or apoptosis of mammalian cancer cells [4]: can suppress the proliferation or cause apoptosis

CC/C=C\CC1C(=O)CCC1CC(=O)OC (stereo not drawn) [MJ, methyl jasmonate]
proliferation or apoptosis of mammalian cancer cells [4]: can suppress the proliferation or cause apoptosis

O=C([O-])c1ccccc1O.[Na+] [SA, sodium salicylate]
proliferation or apoptosis of mammalian cancer cells [4]: can suppress the proliferation or cause apoptosis

CC1=CC(=O)CC(C)(C)[C@@]1(O)/C=C/C(C)=C\C(=O)O [natural ABA (S)]
half-lives (catabolism) [2]: 6 to 8 h

[S-(Z,E)]-5-(1-Hydroxy-2,6,6-trimethyl-4-oxo-2-cyclohexen-1-yl)-3-methyl-2,4-pentadienoic acid [ABA]
insulin secretion [5]: endogenous stimulator of insulin secretion | EPD after ABA treatment ([6]; after 15 hours ABA treatment, from −109 mV): −194 mV | potential increase in average (EPD) ([6]; treatment with 10-100 mcm ABA): 85 mV | functional activities of human granulocytes [7]: stimulates several functional activities as phagocytosis, reactive oxygen species (ROS) and nitric oxide production, and chemotaxis | expression of differentiation and apoptosis markers [8]: expression of RARBETA, involucrin protein and caspase-3 mRNA | nuclear protein Ki67 expressed in proliferating tumor cells [9]: reduced | changes in morphology of cancer cells [10]: growth in poor condition and nuclear pycnosis | apoptosis [11]: induction of apoptosis | cell cycle progression [11]: changed cell cycle progression | cell proliferation rate [11]: reduced cell proliferation rate | luminescence (indicator of reduced negative surface charge) [11]: reduced luminescence | tumor growth [11]: tumor growth reduction | TNFALFA [12]: increased | angiogenesis [13]: inhibit angiogenesis | apoptosis [13]: produce apoptosis | cell cycle and cell division of proliferating tumor cells [13]: make proliferating tumor cells stagnate in S-phase and stop cell division | differentiation of cancer cells [13]: become cancer cells in normal cells | rate of survival at the end of 14 days ([14]; Group II, ABA 1 mg/kg (i.p)): 9 survivors | rate of survival at the end of 14 days ([14]; Group III, ABA 10 mg/kg (i.p)): 10 survivors | rate of survival at the end of 14 days ([14]; Group IV, ABA 10 mg/kg (oral)): 6 survivors | rate of survival at the end of 14 days ([14]; Group V, ABA 100 mg/kg (oral)): 9 survivors | survivors ([14]; group number II, 1 mg/kg): 90% | inhibition of the tumor system (C1498) in mice (C57BL/6J) ([14]; mouse, in vivo): marked effect in the inhibition | survival ([14]; dose at 10 mg/kg): 60% | survival ([14]; dose at 100 mg/kg): 90% | changes in morphology of cancer cells [15]: absence of tumor cell nuclear membrane microvilli and presentation of typical apoptosis characteristics | success rate [16]: around 82% | inhibition of stomatal opening ([17]; pH 6.15): 98% | inhibition of stomatal opening ([17]; pH 8.0): 57%
